Results: patent US11458189B2, “Cytoprotective drugs” (BALMES TRANSPLANTATION, priority 2017, dated 2022)
Starred links: 1 amine or outer side, 2 acyl side, 3 side chain; linkers in the order of their positions; H or OH if unused. Positions of bridges follow the written chain, without caps; N, C: chain ends. Non-standard residues stand in square brackets, D forms with d. Residues, ends and D or L forms follow the SMILES beside them. ξ: configuration not given here. *: point of attachment. pTerphenylCO(4''-OnC5H11) = CCCCCOc1ccc(-c2ccc(-c3ccc(C(=O)*)cc3)cc2)cc1; Orn(4R-OH,5R-OH) = O=C([C@H](C[C@@H](O)[C@@H](O)N[*:3])N[*:1])[*:2]; hTyr(3S-OH,4S-OH) = N[C@H](C(=O)O)[C@H](O)[C@@H](O)c1ccc(O)cc1; Pro(3S-OH,4S-Me) = C[C@H]1CN[C@H](C(=O)O)[C@H]1O; ξPro(4R-OH) = O=C(O)C1C[C@@H](O)CN1

Tested on: Human Astrocytes (HA)
Test: Oxygen and glucose deprivation followed by replenishment, cell survival (calcein AM), HA
Type: cell-based
Procedure: Anidulafungin and micafungin were tested on Human Renal Glomerular Endothelial Cells (HRGEC, Innoprot P10665), on Human Renal Proximal Tubular Epithelial Cells (HRPTEpiC, Innoprot P10662), on Human Astrocytes (HA, caltag SC-1800), on Human Cardiac Microvascular Endothelial Cells (HCMEC, Caltag SC-6000), on Human Hepatic Sinusoidal Endothelial Cells (HHSEC, Caltag SC-5000), on Rat Primary Kidney Glomerular Endothelial cells (Cellbiologics, RN-6014G) and on Bovine Brain Microvascular Endothelial Cells (BBMEC, Caltag SC-B100).
In a first phase, these isolated, purified and cryopreserved cells are thawed and multiplied according to the supplier's recommendations in T75 or T175 flasks pre-coated with 2 μg of fibronectin/[…] (CORNING) for HRGEC, HCMEC, HHSEC and BBMEC, or 2 μg poly-L-lysin/cm^2 (Caltag SC-0403) for HRPTEpiC and HA, or 15 mL/flask 175 cm^2 gelatin-based solution (Cellbiologics) in the presence of endothelial cell supplemented growth medium ECM (P60104, INNOPROT, Caltag, SC-1001) for HRGEC, HCMEC, HHSEC, RPKGEC or BBMEC, or astrocyte cell supplemented growth medium AM (Caltag SC-1801) for HA or epithelial cell supplemented growth medium EpiCM (P60106, INNOPROT) for HRPTEpiC, at 37° C. under 5% CO2 and saturated humidity until their confluency. They are then harvested by trypsinization according to the method described by the supplier for exactly 5 minutes and then reseeded in new flasks a maximum of three times.
To carry out the oxygen and glucose deprivation test followed by their replenishment, the cells will be seeded in 96-well black plates with transparent flat bottom (GREINER). Once a sufficient number of cells has been obtained to allow seeding of 2000 to 15000 cells per well of 96-well plates depending on the cell type, the cells are seeded in these 96-well plates previously coated with an extracellular matrix as listed above for the flasks. The cells are cultured for 5 to 8 days according to the cell type, in the presence of the same growth medium as in the flask as described above except for HRGEC and HRPTEpiC for which DMEM (DUTSCHER) with 1 g/L of supplemented glucose is used, at 37° C. under 5% CO2 and saturated humidity to obtain confluency.
On the first day of oxygen and glucose deprivation, (5th, 6th, 7th or 8th day of culture), the culture conditions are drastically changed. The medium of all plates is removed and replaced by DMEM (DUTSCHER) medium without glucose and supplemented only with 1% penicillin-streptomycin (DUTSCHER). Anidulafungin or micafungin dissolved in dimethyl sulfoxide (DMSO) is then added to each well at the desired concentration, resulting in a maximum of 1% DMSO, and the plates are placed under hypoxia at <1% 02 and 5% CO2 at 37° C. for 24 hours of culture. Each compound was tested in a concentration range.
After 24 hours, the growth medium is changed and replaced by a richer medium, DMEM (DUTSCHER) at 1 g/L glucose and 2% FBS (INNOPROT) and 1% penicillin-streptomycin (DUTSCHER). These media will have been pre-equilibrated at 37° C. in advance. The cells are then returned to culture at 37° C. under 20% 02 and 5% CO2 for 22h.
After 22 hours of reoxygenation, the potential protective effect of anidulafungin or micafungin is measured by a cell viability test using calcein AM (CORNING), which is a dye substrate. The calcein AM can easily cross the cell membrane of the viable cells. The AM ester groups mask the part of the molecule that chelates calcium. Once inside the cells, the (non-fluorescent) calcein AM is hydrolyzed to (fluorescent) calcein by endogenous esterases. The resulting calcein molecule binds to calcium inside the cell and remains trapped inside the cell. These molecules emit strong green fluorescence when subjected to […] of a particular wavelength (495 nm). Since dead cells lack esterase activity, only living cells are labelled.
This cell viability test is performed in two steps. […]

[1] = [Anidulafungin] log μM 0.1760913
[2] = [Anidulafungin] log μM 0.7781513
[3] = [Anidulafungin] log μM −0.1249387
[4] = [Anidulafungin] log μM −0.30103
[5] = [Anidulafungin] log μM −0.5228788

CCCCCOc1ccc(-c2ccc(-c3ccc(C(=O)N[C@H]4C[C@@H](O)[C@@H](O)NC(=O)[C@@H]5[C@@H](O)[C@@H](C)CN5C(=O)[C@H]([C@@H](C)O)NC(=O)[C@H]([C@H](O)[C@@H](O)c5ccc(O)cc5)NC(=O)C5C[C@@H](O)CN5C(=O)[C@H]([C@@H](C)O)NC4=O)cc3)cc2)cc1 (stereo partly drawn) [Anidulafungin] ({pTerphenylCO(4''-OnC5H11)}-[Orn(4R-OH,5R-OH)]T[ξPro(4R-OH)][hTyr(3S-OH,4S-OH)]T[Pro(3S-OH,4S-Me)]; lactam 1-C)
Globalfluo assay 1 ([Anidulafungin] log μM 0): 11468420 arbitrary units
Globalfluo assay 2 ([Anidulafungin] log μM 0): 12221770 arbitrary units
Globalfluo assay 3 ([Anidulafungin] log μM 0): 14645590 arbitrary units
Mean globalfluo ([Anidulafungin] log μM 0): 12778593 arbitrary units
Survival rate (%) ([Anidulafungin] log μM 0): 15%
Globalfluo assay 1 [1]: 11838960 arbitrary units
Globalfluo assay 2 [1]: 12087610 arbitrary units
Globalfluo assay 3 [1]: 13326480 arbitrary units
Mean globalfluo [1]: 12417683 arbitrary units
Survival rate (%) [1]: 13%
Globalfluo assay 1 ([Anidulafungin] log μM 0.30103): 13177930 arbitrary units
Globalfluo assay 2 ([Anidulafungin] log μM 0.30103): 13103050 arbitrary units
Globalfluo assay 3 ([Anidulafungin] log μM 0.30103): 13640130 arbitrary units
Mean globalfluo ([Anidulafungin] log μM 0.30103): 13307037 arbitrary units
Survival rate (%) ([Anidulafungin] log μM 0.30103): 18%
Globalfluo assay 1 ([Anidulafungin] log μM 0.60206): 12006890 arbitrary units
Globalfluo assay 2 ([Anidulafungin] log μM 0.60206): 13270810 arbitrary units
Globalfluo assay 3 ([Anidulafungin] log μM 0.60206): 14798310 arbitrary units
Mean globalfluo ([Anidulafungin] log μM 0.60206): 13358670 arbitrary units
Survival rate (%) ([Anidulafungin] log μM 0.60206): 18%
Globalfluo assay 1 [2]: 14108250 arbitrary units
Globalfluo assay 2 [2]: 14242150 arbitrary units
Globalfluo assay 3 [2]: 13880120 arbitrary units
Mean globalfluo [2]: 14076840 arbitrary units
Survival rate (%) [2]: 22%
Globalfluo assay 1 ([Anidulafungin] log μM 0.90309): 13394210 arbitrary units
Globalfluo assay 2 ([Anidulafungin] log μM 0.90309): 14898570 arbitrary units
Globalfluo assay 3 ([Anidulafungin] log μM 0.90309): 14923380 arbitrary units
Mean globalfluo ([Anidulafungin] log μM 0.90309): 14405387 arbitrary units
Survival rate (%) ([Anidulafungin] log μM 0.90309): 24%
Globalfluo assay 1 [3]: 9674527 arbitrary units
Globalfluo assay 2 [3]: 11462560 arbitrary units
Globalfluo assay 3 [3]: 11240740 arbitrary units
Mean globalfluo [3]: 10792609 arbitrary units
Survival rate (%) [3]: 4%
Globalfluo assay 1 [4]: 12822290 arbitrary units
Globalfluo assay 2 [4]: 11197900 arbitrary units
Globalfluo assay 3 [4]: 11873360 arbitrary units
Mean globalfluo [4]: 11964517 arbitrary units
Survival rate (%) [4]: 10%
Globalfluo assay 1 [5]: 11050980 arbitrary units
Globalfluo assay 2 [5]: 10353030 arbitrary units
Globalfluo assay 3 [5]: 11612880 arbitrary units
Mean globalfluo [5]: 11005630 arbitrary units
Survival rate (%) [5]: 5%
Globalfluo assay 1 ([Anidulafungin] log μM −1): 9709693 arbitrary units
Globalfluo assay 2 ([Anidulafungin] log μM −1): 10543570 arbitrary units
Globalfluo assay 3 ([Anidulafungin] log μM −1): 12170290 arbitrary units
Mean globalfluo ([Anidulafungin] log μM −1): 10807851 arbitrary units
Survival rate (%) ([Anidulafungin] log μM −1): 4%
Globalfluo assay 1 ([Anidulafungin] log μM −2): 10301450 arbitrary units
Globalfluo assay 2 ([Anidulafungin] log μM −2): 9760112 arbitrary units
Globalfluo assay 3 ([Anidulafungin] log μM −2): 11132460 arbitrary units
Mean globalfluo ([Anidulafungin] log μM −2): 10398007 arbitrary units
Survival rate (%) ([Anidulafungin] log μM −2): 2%
